Data taken from patent publication US6620839B2, “1,3-disubstituted and 1,3,3-trisubstituted pyrrolidines as histamine-3 receptor ligands and their therapeutic applications” (Abbott Laboratories, priority 2000, dated 2003).

These compounds were tested against T1, histamine-3 receptor (Rattus norvegicus, UniProt Q9QYN8) (assay: Histamine-3 receptor binding, (3H)-N-α-methylhistamine displacement in rat cortical membranes). Settings: male Sprague-Dawley rat brain cortical membranes; (3H)-N-α-methylhistamine ~0.6 nM; 30 minutes at 25° C.; Cheng-Prusoff.
T1 construct: from tissue; host or cells: male Sprague-Dawley rat brain cortex membranes
T1 sequence (Q9QYN8 whole entry): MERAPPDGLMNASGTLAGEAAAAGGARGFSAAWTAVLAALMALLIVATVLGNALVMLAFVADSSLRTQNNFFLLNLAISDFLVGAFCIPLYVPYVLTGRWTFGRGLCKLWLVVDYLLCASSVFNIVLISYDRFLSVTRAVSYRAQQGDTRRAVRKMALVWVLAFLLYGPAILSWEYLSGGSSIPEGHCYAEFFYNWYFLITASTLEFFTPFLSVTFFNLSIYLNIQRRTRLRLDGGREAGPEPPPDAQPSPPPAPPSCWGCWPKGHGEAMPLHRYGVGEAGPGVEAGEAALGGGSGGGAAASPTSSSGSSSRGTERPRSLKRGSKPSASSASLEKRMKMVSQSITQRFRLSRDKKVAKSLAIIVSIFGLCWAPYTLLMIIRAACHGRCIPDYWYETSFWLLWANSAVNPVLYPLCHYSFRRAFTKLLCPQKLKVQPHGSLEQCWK
Protocol: Briefly, male Sprague-Dawley rat brain cortices were homogenized (1 g tissue/10 mL buffer) in 50 mM Tris-HCl/5 mM EDTA containing protease inhibitor cocktail (Calbiochem) using a polytron set at 20,500 rpm. Homogenates were centrifuged for 20 minutes at 40,000×g. The supernatant was decanted, and pellets were weighed. The pellet was resuspended by polytron homogenization in 40 mL 50 mM Tris-HCl/5 mM EDTA with protease inhibitors and centrifuged for 20 minutes at 40,000×g. […] Test compounds were dissolved in DMSO to provide 20 mM solution, serially diluted and then added to the incubation mixtures prior to initiating the incubation assay by addition of the membranes. Thioperamide (3 μM) was used to determine nonspecific binding. Binding incubations were conducted for 30 minutes at 25° C. and terminated by addition of 2 mL of ice cold 50 mM Tris-HCl (pH 7.7) and filtration through 0.3% polyethylenimine-soaked Unifilter plates (Packard). These filters were washed 4 additional times with 2 mL of ice-cold 50 mM Tris-HCl and dried for 1 hour. Radioactivity was determined using liquid scintillation counting techniques. Results were analyzed by Hill transformation and Ki values were determined using the Cheng-Prusoff equation.

Row | Compound | Ki [µM]
1 | Cc1c(S(=O)(=O)N[C@@H]2CCN(CCCOc3ccc(-c4ccc(C#N)cc4)cc3)C2)sc2ccc(Cl)cc12 [Example 37, 5-chloro-N-((3R)-1-{3-[(4′-cyano[1,1′-biphenyl]-4-yl)oxy]propyl}pyrrolidinyl)-3-methyl-1-benzothiophene-2-sulfonamide] | 0.349
2 | O=C(N[C@@H]1CCN(CCCOc2ccc(C(=O)C3CC3)cc2)C1)c1csc(-c2cccnc2)n1 [Example 13, N-((3R)-1-{3-[4-(cyclopropylcarbonyl)phenoxy]propyl}pyrrolidinyl)-2-(3-pyridinyl)-1,3-thiazole-4-carboxamide] | 0.05
3 | CN(C)S(=O)(=O)N(C)[C@@H]1CCN(CCCOc2ccc(-c3ccc(C#N)cc3)cc2)C1 [Example 124] | 0.0029
4 | CC(C)(C)c1ccc(S(=O)(=O)N[C@@H]2CCN(CCCOc3ccc(C(=O)C4CC4)cc3)C2)cc1 [Example 60, 4-tert-butyl-N-((3R)-1-{3-[4-(cyclopropylcarbonyl)phenoxy]propyl}pyrrolidinyl)benzenesulfonamide] | 0.0052
5 | O=C(c1ccc(OCCCN2CC[C@@H](NS(=O)(=O)c3cccc4ccncc34)C2)cc1)C1CC1 [Example 95, N-((3R)-1-{3-[4-(cyclopropylcarbonyl)phenoxy]propyl}pyrrolidinyl)-8-isoquinolinesulfonamide] | 0.0046
6 | CC(C)c1ccc(S(=O)(=O)N(C)[C@@H]2CCN(CCCOc3ccc(-c4ccc(C#N)cc4)cc3)C2)cc1 [Example 127, N-((3R)-1-{3-[(4′-cyano[1,1′-biphenyl]-4-yl)oxy]propyl}pyrrolidinyl)-4-isoproply-N-methylbenzensulfonamide] | 0.016
7 | CN(C(=O)c1ccc(F)cc1)[C@@H]1CCN(CCCOc2ccc(-c3ccc(C#N)cc3)cc2)C1 [Example 119] | 0.0077
8 | Cc1ccc(S(=O)(=O)N[C@@H]2CCN(CCCOc3ccc(C(=O)C4CC4)cc3)C2)cc1 [Example 61, N-((3R)-1-{3-[4-(cyclopropylcarbonyl)phenoxy]propyl}pyrrolidinyl)-4-methylbenzenesulfonamide] | 0.0042
9 | O=C(c1ccc(OCCCN2CC[C@@H](NS(=O)(=O)c3ccccc3)C2)cc1)C1CC1 [Example 55, N-((3R)-1-{3-[4-(cyclopropylcarbonyl)phenoxy]propyl}pyrrolidinyl)benzenesulfonamide] | 0.0029
10 | CCc1ccc(S(=O)(=O)N[C@@H]2CCN(CCCOc3ccc(C(=O)C4CC4)cc3)C2)cc1 [Example 66, N-((3R)-1-{3-[4-(cyclopropylcarbonyl)phenoxy]propyl}pyrrolidinyl)-4-ethylbenzenesulfonamide] | 0.0046
11 | CN([C@@H]1CCN(CCCOc2ccc(-c3ccc(C#N)cc3)cc2)C1)S(=O)(=O)c1cccc(F)c1 [Example 125] | 0.0074
12 | N#Cc1ccc(-c2ccc(OCCCN3CC[C@@H](NS(=O)(=O)c4ccc(Br)cc4)C3)cc2)cc1 [Example 16, 4-bromo-N-((3R)-1-{3-[(4′-cyano[1,1′-biphenyl]-4-yl)oxy]propyl}pyrrolidinyl)benzenesulfonamide] | 0.067
13 | CC(=O)Nc1ccc(S(=O)(=O)N[C@@H]2CCN(CCCOc3ccc(C(=O)C4CC4)cc3)C2)cc1Cl [Example 96, N-(2-chloro-4-{[((3R)-1-{3-[4-(cyclopropylcarbonyl)phenoxy]propyl}pyrrolidinyl)amino]sulfonyl}phenyl)acetamide] | 0.0012
14 | CC(=O)c1ccc(OCCCN2CC[C@@H](NS(=O)(=O)c3cccc(F)c3)C2)cc1 [Example 72, N-{(3R)-1-[3-(4-acetylphenoxy)propyl]pyrrolidinyl}-3-fluorobenzenesulfonamide] | 0.0079
15 | COc1ccc(S(=O)(=O)N[C@@H]2CCN(CCCOc3ccc(-c4ccccn4)cc3)C2)cc1OC [Example 106, 3,4-dimethoxy-N-((3R)-1-{3-[4-(2-pyridinyl)phenoxy]propyl}pyrrolidinyl)benzenesulfonamide] | 0.168
16 | CC(=O)c1ccc(OCCCN2CC[C@@H](NS(=O)(=O)C(C)C)C2)cc1 [Example 6, N-{(3R)-1-[3-(4-acetylphenoxy)propyl]pyrrolidinyl}-2-propanesulfonamide] | 0.095

Row | Compound | Ki [µM]
17 | N#Cc1ccc(-c2ccc(OCCCN3CC[C@@H](NC(=O)N4CCCC4)C3)cc2)cc1 [Example 136] | 0.215
18 | Cc1ccc(S(=O)(=O)N[C@@H]2CCN(CCCOc3ccc(-c4ccc(C#N)cc4)cc3)C2)cc1Cl [Example 43, 3-chloro-N-((3R)-1-{3-[(4′-cyano[1,1′-biphenyl]-4-yl)oxy]propyl}pyrrolidinyl)-4-methylbenzenesulfonamide] | 0.037
19 | CC(C)(C)CC(=O)N(C(=O)CC(C)(C)C)[C@@H]1CCN(CCCOc2ccc(-c3ccc(C#N)cc3)cc2)C1 [Example 147] | 0.209
20 | N#Cc1ccc(-c2ccc(OCCCN3CC[C@@H](NS(=O)(=O)c4cccc(Cl)c4)C3)cc2)cc1 [Example 31, 3-chloro-N-((3R)-1-{3-[(4′-cyano[1,1′-biphenyl]-4-yl)oxy]propyl}pyrrolidinyl)benzenesulfonamide] | 0.03
21 | CC(=O)c1ccc(OCCCN2CC[C@@H](NC(=O)CSc3nccc(C)n3)C2)cc1 [Example 2, N-{(3R)-1-[3-(4-acetylphenoxy)propyl]pyrrolidinyl}-2-[(4-methyl-2-pyrimidinyl)sulfanyl]acetamide] | 0.068
22 | N-((3R)-1-{3-[4-(cyclopropylcarbonyl)phenoxy]propyl}pyrrolidinyl)-4-isopropylbenzenesulfonamide [Example 67] | 0.0029
23 | N#Cc1ccc(-c2ccc(OCCCN3CC[C@@H](N(C(=O)N4CCOCC4)C(=O)N4CCOCC4)C3)cc2)cc1 [Example 150] | 0.267
24 | N#Cc1ccc(-c2ccc(OCCCN3CC[C@@H](N(C(=O)N4CCCC4)C(=O)N4CCCC4)C3)cc2)cc1 [Example 149] | 0.329
25 | COc1cc(-c2ccc(C#N)cc2)ccc1OCCCN1CC[C@@H](N(C)C)C1 [Example 173, 4′-{3-[(3R)-3-(dimethylamino)-1-pyrrolidinyl]propoxy}-3′-methoxy-1,1′-biphenyl-4-carbonitrile] | 0.027
26 | CC(=O)c1ccc(OCCCN2CC[C@@H](NS(=O)(=O)c3cccn3-c3ncc(C(F)(F)F)cc3Cl)C2)cc1 [Example 78, N-{(3R)-1-[3-(4-acetylphenoxy)propyl]pyrrolidinyl}-1-[3-chloro-5-(trifluoromethyl)-2-pyridinyl]-1H-pyrrole-2-sulfonamide] | 0.0087
27 | CC(=O)c1ccc(OCCCN2CC[C@@H](NC(=O)C3CC3)C2)cc1 [Example 1, N-{(3R)-1-[3-(4-acetylphenoxy)propyl]pyrrolidinyl}cyclopropanecarboxamide] | 0.105
28 | CN(C(=O)CC(C)(C)C)[C@@H]1CCN(CCCOc2ccc(-c3ccc(C#N)cc3)cc2)C1 [Example 112] | 0.013
29 | CN(C)C(=O)N[C@@H]1CCN(CCCOc2ccc(-c3ccc(C#N)cc3)cc2)C1 [Example 135] | 0.132
30 | CN([C@@H]1CCN(CCCOc2ccc(-c3ccc(C#N)cc3)cc2)C1)S(=O)(=O)c1ccc(S(C)(=O)=O)cc1 [Example 128] | 0.0023
31 | Cn1cnc(S(=O)(=O)N[C@@H]2CCN(CCCOc3ccc(-c4ccccn4)cc3)C2)c1 [Example 105, 1-methyl-N-((3R)-1-{3-[4-(2-pyridinyl)phenoxy]propyl}pyrrolidinyl)-1 H-imidazole-4-sulfonamide] | 0.725
